Earlier results in US12478593B2, “Formulations for hair growth” (JENIVISION INC., priority 2016, dated 2025).

Legend:
[1] = Xalatan
[2] = tested on: eyelash hair follicle growth cycle; conditions: mouse eyelash model
eyelashes = conditions: humans

For `CC(C)OC(=O)CCC/C=C\C[C@@H]1[C@@H](CC[C@@H](O)CCc2ccccc2)[C@H](O)C[C@@H]1O` [latanoprost], the “stability in aqueous solution (de-esterification)” value [1] is listed as “facile hydrolysis”.

For `CCNC(=O)CCC/C=C\C[C@@H]1[C@@H](/C=C/[C@@H](O)CCc2ccccc2)[C@H](O)C[C@@H]1O` [bimatoprost], the “effect on anagen growth phase of eyelashes” value [2] is listed as “increased entry into anagen and extension of the anagen growth phase” and the eyelash growth (eyelashes) is listed as “produces eyelash growth”.
